Experimental data taken from the supplement of paper PMC10627819.

Experiments:
S. aureus Newman [1] = test: fitness (endpoint OD595 vs no drug) (fraction); higher = more growth
Procedure, shortened: (§1)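 Growth medium was TSB, LB Lennox or CY, and plates were kept at 37 °C. Inoculation was at OD595 0.01 in 384-well plates, at 30 µl per well or 55 µl for S. pneumoniae. OD595 was monitored every 30 min for 14 h and background-subtracted using the first reading. Fitness is the optical density on entering stationary phase divided by the robust mean of no-drug controls, with values capped at 1.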

S. pneumoniae D39V [2] = test: as above
Procedure, shortened: as §1

B. subtilis 168 = test: Bliss interaction score (quartile over a dose matrix) (fitness difference); higher = more antagonism (negative = synergy)
Procedure, shortened: (§2)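 Quartiles of the Bliss score were taken over technical, biological and donor/recipient replicates. That score is observed fitness minus the product of the single-drug fitness values, which were inferred from combination data. Fitness itself is OD595 at entry into stationary phase divided by the plate's robust no-drug mean, with a cap at 1.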

S. aureus DSM 20231 = test: as above
Procedure, shortened: as §2

S. aureus Newman [3] = test: as above
Procedure, shortened: as §2

S. pneumoniae D39V [4] = test: as above
Procedure, shortened: as §2
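For Bliss interaction score (quartile over a dose matrix) in this document: first quartile when negative (synergy) and third quartile when positive (antagonism).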

CC1(C)S[C@@H]2[C@H](NC(=O)[C@H](N)c3ccc(O)cc3)C(=O)N2[C@H]1C(=O)O [Amoxicillin] + C/C(=C\C(=O)OCCCCCCCCC(=O)O)C[C@@H]1OC[C@H](C[C@@H]2O[C@H]2[C@@H](C)[C@H](C)O)[C@@H](O)[C@H]1O [Pseudomonic acid]
fitness, one replicate
Settings | partner 0.03 µg/mL | partner 0.0313 µg/mL | partner 0.06 µg/mL | partner 0.0625 µg/mL | partner 0.12 µg/mL | partner 0.125 µg/mL
S. aureus Newman [1], first compound 0.0625 µg/mL | – | 0.0402 | – | 0.0188 | – | 0.0414
S. aureus Newman [1], first compound 0.125 µg/mL | – | 0.0188 | – | 0.0167 | – | 0.0327
S. aureus Newman [1], first compound 0.25 µg/mL | – | 0.0112 | – | 0.0059 | – | 0.0163
S. pneumoniae D39V [2], first compound 0.006 µg/mL | 0.577 | – | 0.64 | – | 0.283 | –

fitness, S. pneumoniae D39V [2]
Settings | first compound 0.0008 µg/mL | first compound 0.0015 µg/mL | first compound 0.003 µg/mL
partner 0.03 µg/mL | 0.888 | 0.974 | 0.932
partner 0.06 µg/mL | 0.838 | 0.822 | 0.882
partner 0.12 µg/mL | 0.586 | 0.68 | –

Settings | Bliss interaction score
B. subtilis 168 | 0.0663
S. aureus DSM 20231 | 0.0169
S. aureus Newman [3] | -0.031
S. pneumoniae D39V [4] | 0.121

CC1(C)S[C@@H]2[C@H](NC(=O)[C@H](N)c3ccc(O)cc3)C(=O)N2[C@H]1C(=O)O [Amoxicillin] + CC1=C(C(=O)O)N2C(=O)[C@@H](NC(=O)[C@H](N)c3ccccc3)[C@H]2SC1 [Cephalexin]
fitness
Settings | partner 0.25 µg/mL | partner 0.5 µg/mL | partner 1 µg/mL | partner 2 µg/mL | partner 4 µg/mL
S. aureus Newman [1], first compound 0.0625 µg/mL | 0.877 | 0.882 | 0.942 | – | –
S. aureus Newman [1], first compound 0.125 µg/mL | 0.928 | 0.921 | 0.894 | – | –
S. aureus Newman [1], first compound 0.25 µg/mL | 0.877 | 0.928 | 0.888 | – | –
S. pneumoniae D39V [2], first compound 0.0015 µg/mL | – | – | 0.791 | 0.337 | 0.0775
S. pneumoniae D39V [2], first compound 0.003 µg/mL | – | – | 0.544 | 0.125 | 0.0383

one replicate
Settings | fitness
S. aureus Newman [1], first compound 0.0625 µg/mL, partner 2 µg/mL | 0.864
S. aureus Newman [1], first compound 0.125 µg/mL, partner 2 µg/mL | 0.832
S. aureus Newman [1], first compound 0.25 µg/mL, partner 2 µg/mL | 0.705
S. pneumoniae D39V [2], first compound 0.0008 µg/mL, partner 0.125 µg/mL | 0.978
S. pneumoniae D39V [2], first compound 0.0008 µg/mL, partner 0.25 µg/mL | 0.9
S. pneumoniae D39V [2], first compound 0.0008 µg/mL, partner 0.5 µg/mL | 0.881
S. pneumoniae D39V [2], first compound 0.0008 µg/mL, partner 1 µg/mL | 0.91
S. pneumoniae D39V [2], first compound 0.0008 µg/mL, partner 2 µg/mL | 0.494
S. pneumoniae D39V [2], first compound 0.0008 µg/mL, partner 4 µg/mL | 0.02
S. pneumoniae D39V [2], first compound 0.0015 µg/mL, partner 0.125 µg/mL | 0.922
S. pneumoniae D39V [2], first compound 0.0015 µg/mL, partner 0.25 µg/mL | 0.891
S. pneumoniae D39V [2], first compound 0.0015 µg/mL, partner 0.5 µg/mL | 0.906
S. pneumoniae D39V [2], first compound 0.003 µg/mL, partner 0.125 µg/mL | 0.857
S. pneumoniae D39V [2], first compound 0.003 µg/mL, partner 0.25 µg/mL | 0.835
S. pneumoniae D39V [2], first compound 0.003 µg/mL, partner 0.5 µg/mL | 0.849
S. pneumoniae D39V [2], first compound 0.006 µg/mL, partner 1 µg/mL | 0.0722
S. pneumoniae D39V [2], first compound 0.006 µg/mL, partner 2 µg/mL | 0.0153
S. pneumoniae D39V [2], first compound 0.006 µg/mL, partner 4 µg/mL | 0.0513

Settings | Bliss interaction score
B. subtilis 168 | 0.0616
S. aureus DSM 20231 | 0.0743
S. aureus Newman [3] | 0.0592
S. pneumoniae D39V [4] | -0.0619
